Publication PMC4536990, “Efficacy of the antimicrobial peptide TP4 against Helicobacter pylori infection: in vitro membrane perturbation via micellization and in vivo suppression of host immune responses in a mouse model” (Oncotarget, 2015)
Where a SMILES comes first, the peptide text is derived from it.

Columns and labels:
[1] = test system: C3H/HeN mice; test: Dermal toxicity; assay type: in vivo; conditions: 48 hr post-exposure, after residue removal; 125 mg/kg TP4 or 20% SDS; n=12 per group
Procedure: (§1) Figure 11 TP4 toxicity safety evaluations in New Zealand albino rabbits and C3H/HeN mice (A) Eye irritation test: Ocular appearances of controls, and rabbits treated with TP4 or SDS for 7 days. […] (B) Dermal toxicity: appearances of the skin of mice treated with TP4 at 48 hr post-exposure.
(§2) Oral toxicity: Acute oral toxicity was assessed in C3H/HeN mice with 6 animals per group, by single oral administration of TP4 (125 mg/kg). After dose administration, the animals were kept under observation for a minimum of 48 hr. The mortality rate and clinical signs were recorded. Sub-acute oral toxicity was assessed by administering 600 μg dose/day for 14 days. During dose administration, the animals were observed every day for any signs of toxicity. After the treatment period, the animals were kept under observation for 14 days. The morbidity, mortality, and other clinical signs were recorded and assessed. Dermal Toxicity was assessed by topical application of TP4 at 10 times the effective dose to skin at the dorsal side of mice. After administration, the animals were kept under observation for a minimum of 48 h. Clinical signs were noted if the animals were in the morbid stage or presented with any abnormalities. Eye irritation test in New Zealand white rabbits: Healthy young adult rabbits were used in the experiment. Eyes were treated with TP4, PBS (vehicle control), or 0.1% SDS (positive control). A repeated dose of 1 mg/kg was administered every day for 7 days. During the treatment period, the eyes were examined on days 1, 3, 5, and 7, and allowed to recover until day 14. Clinical signs were recorded during the test period, and grades were assigned for ocular reactions observed during each examination. All procedures, care, and handling of rabbits were approved by the laboratory animal ethics committee of National Taiwan Ocean University.

[2] = test system: New Zealand white rabbits; test: Eye irritation test in rabbits (OECD 405); assay type: in vivo; conditions: for Abnormality iris grade / Chemosis grade / Conjunctivae Redness grade / Corneal opacity grade: OECD 405 grading
Procedure: as §1, §2

[3] = test system: H. pylori 43629; assay type: cell-based, Helicobacter pylori; conditions: 43629, 24 h
[4] = test system: H. pylori 700392; assay type: cell-based, Helicobacter pylori; conditions: 700392, 24 h
Procedure: (§3) H. pylori strains, American type cell cultures (ATCC) 43504, 51653, and 700392, and a clinical isolate CI-HC-028 (provided by Dr. Ming-Shiung Wu, Department of Internal Medicine, Gastrointestinal Hepatobilary Division, National Taiwan University Hospital, Taiwan) were used to determine the antimicrobial efficacy of TP4. Strains were cryopreserved at −80°C in brain heart infusion broth supplemented with 20% FBS. Bacteria were cultured under microaerobic conditions, as previously described. Briefly, bacteria were spread on brain heart infusion (BHI) agar plates supplemented with 10% (v/v) sheep blood, and plates were incubated at 37°C for 24 hr under a microaerobic atmosphere (Anaeropack-Anaero, Mitsubishi, Japan).
(§4) Frozen cultures were streaked onto BHI agar with 10% sheep blood, and incubated for 24 hr under microaerophilic conditions. H. pylori cells undergoing exponential growth were suspended in sterile phosphate-buffered saline (PBS), and adjusted to 0.05 OD using BHI broth; the resulting inoculum was dispensed onto a microtitre plate. Peptide TP4 was prepared at various concentrations (0.04 to 50 μg mL^−1) using PBS. Antibiotic resistant clinical isolate CI-HC-028 and three reference strains were used for susceptibility testing. All plates were incubated under microaerophilic conditions at 37°C overnight. The MIC was defined as the lowest concentration of the drug at which there was no visible growth. For quality control and comparative analyses, we examined the susceptibility of all four H. pylori strains to the antibiotics amoxicillin, clarithromycin, and metronidazole (Sigma Chemical Co., St. Louis, MO).

[5] = test system: H. pylori 43504; assay type: cell-based, Helicobacter pylori; conditions: 43504, 24 h
Procedure: as §3, §4

[6] = test system: H. pylori CI-HC-028; assay type: cell-based, Helicobacter pylori; conditions: CI-HC-028, 24 h
Procedure: as §3, §4

[7] = test system: H. pylori CI-HC-028; test: Time-dependent killing of multidrug resistant clinical isolate; assay type: cell-based, Helicobacter pylori; conditions: CI-HC-028, at MIC
Procedure: Control peptide and H. pylori alone were used as controls. The cultures were monitored for 24 h, and aliquots were taken at 1, 3, 6, 12, and 24 h for bacterial enumeration. The data are means ± SEM. […] Approximately, 1 × 10^5 cells were incubated for 1 h, and then incubated with the MIC of TP4, amoxicillin, metronidazole, or clarithromycin (AMOX, METZ, and CLRN, respectively). The cultures were monitored for 24 h, and aliquots taken at 1, 3, 6, 12, and 24 h to determine surviving c.f.u. The data are means ± SEM
Overnight cultures of H. pylori were scraped and adjusted to OD 0.05, and 1 ml/tube inocula were prepared with BHI broth. Solutions of TP4 or clinical antibiotics were prepared with concentrations corresponding to their respective MIC, and PBS was used as a control. The tubes were incubated without shaking at 37°C under microaerophilic conditions, and sample aliquots were taken at 0, 1, 3, 6, 12, and 24 hr. The samples were serially diluted, and appropriate dilutions were plated in triplicate onto blood agar plates for bacterial counts. The results were expressed as mean log (c.f.u. mL^−1) with standard error.

[8] = test system: metronidazole- and clarithromycin-resistant H. pylori strains; test: Synergy of TP4 with antibiotics, in vitro dose-OD fall kinetics; assay type: cell-based, Helicobacter pylori; conditions: TP4 plus antibiotic
Procedure: (§5) Animals were sacrificed at each passage, and the MIC of TP4, amoxicillin, metronidazole, and clarithromycin were recorded for 10 serial passages. Passage points in the curves are means ± SEM. (MICs: standard MIC value; MICp: passage-induced MIC). (B) In vitro dose-OD fall kinetics were examined for TP4 alone and in combination with amoxicillin, metronidazole, or clarithromycin. […] The data shown are means ± SEM of two independent experiments
Combination therapy often enhances antibiotic efficacy and mitigates the frequency at which drug resistance emerges. To determine the suitability of TP4 for combination therapy, we examined in vitro dose-OD fall kinetics of TP4 in combination with AMOX, CLRN, or METZ antibiotics; these three antibiotics are traditionally used as the first line of defense against H. pylori.

[9] = test system: H. pylori; test: Induction of drug resistance by sub-inhibitory passaging (in vitro / in vivo passage); assay type: cell-based, Helicobacter pylori; conditions: sub-inhibitory doses, 10 serial passages
Procedure: as §5
The drug resistance of bacteria to TP4 and clinical antibiotics was determined by in vitro culturing of H. pylori in sub-inhibitory concentrations of TP4 and antibiotics, followed by repeated in vivo passaging. H. pylori was administered to C3H/HeN mice and allowed to colonize the gut; subsequently pure colonies of H. pylori were isolated on EYE selective media. This step was repeated for 10 passages. During each passage, the MICs of TP4 and the conventional antibiotics were determined. All procedures, care, and handling of mice were approved by the laboratory animal ethics committee of National Taiwan Ocean University.

## CCCCCCCCCCCCOS(=O)(=O)[O-].[Na+] [SDS, reference compound]
[1]
  skin appearance, lesions: No obvious lesions
[2]; Day 1
  Abnormality iris grade: 0
  Chemosis grade: 1.5
  Conjunctivae Redness grade: 1
[2]; Day 1, rabbit eye, daily for 7 days (TP4 1 mg/kg; SDS 0.1%)
  Corneal opacity grade: 1
[2]; Day 3
  Abnormality iris grade: 0
  Chemosis grade: 1.5
  Conjunctivae Redness grade: 1
  Corneal opacity grade: 1
[2]; Day 5
  Abnormality iris grade: 0
  Chemosis grade: 2
  Conjunctivae Redness grade: 1
  Corneal opacity grade: 1
[2]; Day 7
  Abnormality iris grade: 0
  Chemosis grade: 2
  Conjunctivae Redness grade: 1
  Corneal opacity grade: 1
[2]; Recovery, Day 14
  Abnormality iris grade: 0
  Chemosis grade: 1.5
  Conjunctivae Redness grade: 0.5
  Corneal opacity grade: 0.5
[2]; rabbits treated for 7 days, observed daily
  ocular appearance: severe lacrimation, swelling of the eyelids, and elevated blood vessels in conjunctivae

## CC(C)C[C@H](NC(=O)[C@@H](NC(=O)[C@H](CO)NC(=O)[C@H](CC(=O)O)NC(=O)[C@H](Cc1c[nH]c2ccccc12)NC(=O)[C@H](CC(=O)O)NC(=O)[C@@H](N)Cc1ccccc1)C(C)C)C(=O)N[C@@H](CCCCN)C(=O)NCC(=O)N[C@H](C(=O)N[C@@H](CCC(=O)O)C(=O)NCC(=O)N[C@@H](Cc1ccccc1)C(=O)N[C@H](C(=O)N[C@@H](CCCNC(=N)N)C(=O)NCC(=O)N[C@@H](Cc1ccc(O)cc1)C(=O)N[C@@H](Cc1ccccc1)C(N)=O)C(C)C)C(C)C [TP1] (H-FDWDSVLKGVEGFVRGYF-NH2)
[3]
  MIC: > 12 µg/mL
[4]
  MIC: > 12 µg/mL
[5]
  MIC: > 12 µg/mL
[6]
  MIC: > 12 µg/mL

## CC[C@H](C)[C@H](NC(=O)[C@H](CC(C)C)NC(=O)[C@H](CO)NC(=O)[C@H](Cc1c[nH]cn1)NC(=O)[C@@H](NC(=O)[C@H](Cc1c[nH]cn1)NC(=O)[C@H](CCCCN)NC(=O)CNC(=O)[C@@H](NC(=O)[C@H](CO)NC(=O)[C@H](Cc1ccccc1)NC(=O)[C@H](CC(C)C)NC(=O)CNC(=O)CNC(=O)[C@@H](NC(=O)[C@@H](NC(=O)[C@H](Cc1c[nH]cn1)NC(=O)[C@H](Cc1c[nH]cn1)NC(=O)[C@@H](NC(=O)[C@@H](N)Cc1ccccc1)[C@@H](C)CC)[C@@H](C)CC)[C@@H](C)CC)C(C)C)[C@@H](C)CC)C(=O)N[C@@H](Cc1c[nH]cn1)C(=O)NCC(=O)N[C@@H](Cc1c[nH]cn1)C(N)=O [TP3] (H-FIHHIIGGLFSVGKHIHSLIHGH-NH2)
[3]
  MIC: 8 to 12 µg/mL
[4]
  MIC: 8 to 12 µg/mL
[5]
  MIC: 8 to 12 µg/mL
[6]
  MIC: 8 to 12 µg/mL

## CC[C@H](C)[C@H](NC(=O)[C@H](CC(C)C)NC(=O)[C@H](CCC(=O)O)NC(=O)[C@H](CCC(N)=O)NC(=O)[C@H](CC(C)C)NC(=O)[C@@H](NC(=O)[C@H](CCCCN)NC(=O)[C@H](CCC(N)=O)NC(=O)[C@@H](NC(=O)[C@@H](NC(=O)[C@H](CCC(=O)O)NC(=O)CNC(=O)[C@H](CO)NC(=O)[C@@H](NC(=O)[C@H](CCC(N)=O)NC(=O)[C@H](CCCCN)NC(=O)CNC(=O)[C@H](CCC(N)=O)NC(=O)[C@H](CC(C)C)NC(=O)[C@@H](N)CCC(N)=O)C(C)C)C(C)C)C(C)C)C(C)C)C(=O)N[C@@H](CCC(N)=O)C(=O)N[C@@H](CO)C(=O)N[C@H](C(=O)N[C@@H](C)C(=O)N[C@@H](CCCCN)C(=O)N1CCC[C@H]1C(N)=O)C(C)C [TP5] (H-QLQGKQVSGEVVQKVLQELIQSVAKP-NH2)
[3]
  MIC: >12 µg/mL
[4]
  MIC: >12 µg/mL
[5]
  MIC: >12 µg/mL
[6]
  MIC: >12 µg/mL

## CC[C@H]1OC(=O)[C@H](C)[C@@H](O[C@H]2C[C@@](C)(OC)[C@@H](O)[C@H](C)O2)[C@H](C)[C@@H](O[C@@H]2O[C@H](C)C[C@H](N(C)C)[C@H]2O)[C@](C)(OC)C[C@@H](C)C(=O)[C@H](C)[C@@H](O)[C@]1(C)O [clarithromycin]
[7]
  time taken to 90% reduction of c.f.u.: > 24 h
[8]
  reduction of the MIC of the antibiotic in combination with TP4: one-half
[9]
  drug resistance index MICp/MICs: gradually increased from passage 3 to the last passage

## Cc1ncc([N+](=O)[O-])n1CCO [metronidazole]
[7]; 24 h
  course of cell count in time kill: initial decrease in cell count, but gradually lost activity
[8]
  reduction of the MIC of the antibiotic in combination with TP4: one-half
[9]
  drug resistance index MICp/MICs: gradually increased from passage 3 to the last passage
